Data: patent US20070026408A1, “Materials and methods for analysis of atp-binding cassette transporter gene expression” (priority 2003, published 2007)
Where a name gives a salt, the structure may show the parent alone.

Legend:
Type in all cases: cell-based, human
Settings in all cases: HepG2, doxorubicin HCl 25 nM, standard 11
abcA4 = assay: DT1 microarray drug screening, drug-treated HepG2: abcA4
Description: (§1) The labelled cDNA target preparation was thawed and the 150 μl added to 850 ul hybridisation buffer (500 mM sodium Phosphate pH 6.0, 1% SDS, 1% BSA, 1 mM EDTA) in a 1.5 ml microtube and heated at 95° C. for 10 min.

abcA5 = assay: DT1 microarray drug screening, drug-treated HepG2: abcA5
Description: as §1

abcA8 = assay: DT1 microarray drug screening, drug-treated HepG2: abcA8
Description: as §1

abcB8 = assay: DT1 microarray drug screening, drug-treated HepG2: abcB8
Description: as §1

abcC2 = assay: DT1 microarray drug screening, drug-treated HepG2: abcC2
Description: as §1

abcC3 = assay: DT1 microarray drug screening, drug-treated HepG2: abcC3
Description: as §1

abcC9 = assay: DT1 microarray drug screening, drug-treated HepG2: abcC9
Description: as §1

abcC10 = assay: DT1 microarray drug screening, drug-treated HepG2: abcC10
Description: as §1

abcC11 = assay: DT1 microarray drug screening, drug-treated HepG2: abcC11
Description: as §1

abcC13 = assay: DT1 microarray drug screening, drug-treated HepG2: abcC13
Description: as §1

abcD2 = assay: DT1 microarray drug screening, drug-treated HepG2: abcD2
Description: as §1

abcE1 = assay: DT1 microarray drug screening, drug-treated HepG2: abcE1
Description: as §1

abcF1 = assay: DT1 microarray drug screening, drug-treated HepG2: abcF1
Description: as §1

abcF2 = assay: DT1 microarray drug screening, drug-treated HepG2: abcF2
Description: as §1

abcG5 = assay: DT1 microarray drug screening, drug-treated HepG2: abcG5
Description: as §1

With `COc1cccc2c1C(=O)c1c(O)c3c(c(O)c1C2=O)C[C@@](O)(C(=O)CO)C[C@@H]3O[C@H]1C[C@H](N)[C@H](O)[C@H](C)O1` [dox, doxorubicin HCl] the “relative level of abcA4 gene expression” value (abcA4; 2 h) was 8.765, the “relative level of abcA4 gene expression” value (abcA4; 4 h) was 4.535 and the “relative level of abcA4 gene expression” value (abcA4; 8 h) was 6.099. The “relative level of abcA5 gene expression” value (abcA5; 2 h) was 3.302, the “relative level of abcA5 gene expression” value (abcA5; 4 h) was 2.021 and the “relative level of abcA5 gene expression” value (abcA5; 8 h) was 2.451. The “relative level of abcA8 gene expression” value (abcA8; 2 h) was 3.036, the “relative level of abcA8 gene expression” value (abcA8; 4 h) was 1.786 and the “relative level of abcA8 gene expression” value (abcA8; 8 h) was 2.174. The “relative level of abcB8 gene expression” value (abcB8; 2 h) was 8.004, the “relative level of abcB8 gene expression” value (abcB8; 4 h) was 5.438 and the “relative level of abcB8 gene expression” value (abcB8; 8 h) was 5.353. The “relative level of abcC2 gene expression” value (abcC2; 2 h) was 0.6141, the “relative level of abcC2 gene expression” value (abcC2; 4 h) was 0.3603 and the “relative level of abcC2 gene expression” value (abcC2; 8 h) was 0.3548. The “relative level of abcC3 gene expression” value (abcC3; 2 h) was 7.156, the “relative level of abcC3 gene expression” value (abcC3; 4 h) was 4.014 and the “relative level of abcC3 gene expression” value (abcC3; 8 h) was 4.2. For the same compound, the “relative level of abcC9 gene expression” value (abcC9; 2 h) was 5.598, the “relative level of abcC9 gene expression” value (abcC9; 4 h) was 3.678 and the “relative level of abcC9 gene expression” value (abcC9; 8 h) was 3.982. For the same compound, the “relative level of abcC10 gene expression” value (abcC10; 2 h) was 5.151, the “relative level of abcC10 gene expression” value (abcC10; 4 h) was 3.335 and the “relative level of abcC10 gene expression” value (abcC10; 8 h) was 3.633. For the same compound, the “relative level of abcC11 gene expression” value (abcC11; 2 h) was 7.608, the “relative level of abcC11 gene expression” value (abcC11; 4 h) was 4.384 and the “relative level of abcC11 gene expression” value (abcC11; 8 h) was 5.056. The “relative level of abcC13 gene expression” value (abcC13; 2 h) was 3.203, the “relative level of abcC13 gene expression” value (abcC13; 4 h) was 2.548 and the “relative level of abcC13 gene expression” value (abcC13; 8 h) was 2.593. The “relative level of abcD2 gene expression” value (abcD2; 2 h) was 2.503, the “relative level of abcD2 gene expression” value (abcD2; 4 h) was 2.516 and the “relative level of abcD2 gene expression” value (abcD2; 8 h) was 2.409. The “relative level of abcE1 gene expression” value (abcE1; 2 h) was 4.155, the “relative level of abcE1 gene expression” value (abcE1; 4 h) was 2.794 and the “relative level of abcE1 gene expression” value (abcE1; 8 h) was 3.088. The “relative level of abcF1 gene expression” value (abcF1; 2 h) was 2.485, the “relative level of abcF1 gene expression” value (abcF1; 4 h) was 2.87 and the “relative level of abcF1 gene expression” value (abcF1; 8 h) was 2.662. For the same compound, the “relative level of abcF2 gene expression” value (abcF2; 2 h) was 5.979, the “relative level of abcF2 gene expression” value (abcF2; 4 h) was 4.068 and the “relative level of abcF2 gene expression” value (abcF2; 8 h) was 4.807. For the same compound, the “relative level of abcG5 gene expression” value (abcG5; 2 h) was 2.201, the “relative level of abcG5 gene expression” value (abcG5; 4 h) was 1.764 and the “relative level of abcG5 gene expression” value (abcG5; 8 h) was 1.752.
